Source: US7208154B2, “Methods and compositions for the treatment of MHC-associated conditions” (Regents of the University of Michigan, priority 2002, dated 2007)

Experiments:
[1] = target: T1, calreticulin (Homo sapiens, UniProt P27797); experiment: Surface plasmon resonance, calreticulin immobilized on CM5 chip, pentapeptide binding; design: GST (cleaved yes); made in house; host or cells: E. coli (strain provided by Dr. Michalak); conditions: Biacore, 25° C., peptides 25–180 μM
T1 sequence (P27797 18-417): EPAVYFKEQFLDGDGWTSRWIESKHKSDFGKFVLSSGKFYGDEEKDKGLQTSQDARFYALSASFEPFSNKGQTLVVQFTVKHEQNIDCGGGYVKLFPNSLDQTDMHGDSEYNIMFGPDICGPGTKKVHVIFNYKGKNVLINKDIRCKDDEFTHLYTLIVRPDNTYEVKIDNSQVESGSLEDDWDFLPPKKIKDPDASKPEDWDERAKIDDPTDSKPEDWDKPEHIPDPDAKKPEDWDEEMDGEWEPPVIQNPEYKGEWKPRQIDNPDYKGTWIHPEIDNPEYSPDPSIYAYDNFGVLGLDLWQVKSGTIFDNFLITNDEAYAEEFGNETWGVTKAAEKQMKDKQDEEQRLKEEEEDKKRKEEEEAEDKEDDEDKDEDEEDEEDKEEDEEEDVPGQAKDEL
Protocol: The E. coli strain expressing GST fusion Calreticulin was kindly provided by Dr. Michalak [Baksh S et al. Protein Expr Purif., 3, 322–331, (1992)]. GST-Calreticulin was purified according to the manual of GST Gene Fusion System from Pharmacia. Factor Xa was used to liberate GST from calreticulin. In an additional step the column was treated with mono-Q to achieve >90% purity of calreticulin (MW=60 kD).
Prior to use, biosensor chips CM5 were docked into a Biacore® 2000 and preconditioned in water at 100 μl/min by applying two consecutive 20-μl pulses of 50 mM NaOH, then 10 mM HCl, and finally 0.1% SDS. Calreticulin was immobilized on CM5 surface by standard primary amine coupling [Lofas S et al. Biosensors & Bioelectronics, 10: 813–822, (1995), Johnsson B et al. J Mol Recognit., 8: 125–131, (1995), Karlsson R et al. J. Immunol. Methods, 200:121–133. (1997)]. Immobilizations were conducted at 25° C. in HBS-EP (10 mM HEPES, pH7.4, 150 mM NaCl, 1 mM EDTA, 0.005% Surfactant P-20), with a flow of 10 μl/min. […]
Shared epitope-expressing peptides potently bind to, and trigger, signaling through calreticulin. […] However, when calreticulin binding activities of the panel of pentapeptides were determined, one conspicuous exception was discovered, that is DKCLA FIG. 15 peptide #7 (Q70D).

[2] = system: Human fibroblastoid M1 cells; experiment: NO production (fluorometric nitrate/nitrite DAN assay) in M1 cells stimulated with bead-bound peptide; format: cell-based; conditions: for Block of NO induction by shared epitope-expressing peptide 65–79*0401: then bead-bound 65–79*0401 for 1–30 min
Protocol: DKCLA [SEQ ID NO: 16] binds to calreticulin, and inhibits binding of shared epitope-expressing peptides which trigger pro-oxidative signaling (FIG. 9). In follow up experiments the functional activity of DKCLA [SEQ ID NO: 16] was determined by measuring its effect on NO production by shared epitope-expressing peptides (i.e. 65–79*0401) and a control peptide, 65–79*0402. Human fibroblastoid M1 cells were pre-incubated overnight with or without 50 µg/ml of DKCLA. Subsequently culture medium was changed to NO assay buffer (20 mM Tris, pH7.6, 100 mM NaCl, 0.1 mM EDTA), and cells were stimulated for 1–30 min with Sepharose bead-bound peptide 65–79*0401 or control peptide 65–79*0402. At different time points, cultures were collected and NO levels were measured. Briefly, supernatants were collected and spun down to remove cell debris. Nitrate in the supernatant were first transformed to nitrite by incubation with nitrate reductase for 60 min in room temperature. Then, DAN was added to yield fluorescent 2,3-naphthotriazole. Fluorescence was measured with a Perkin-Elmer Fusion™ Universal Microplate Analyzer, using a wavelength excitation of 375 nm and an emission wavelength of 415 nm.
The nitrite and nitrate assay was a modified method from fluorometric determination of nitrite [Thomas Pet al. Anal. Biochem., 214:11–16, (1993), Miles AM et al. Methods 7: 40–47, (1995)]. Cell culture medium was changed to NO assay buffer (20mM Tris, pH7.6, 100 mM NaCl, 0.1 mM EDTA) and was treated by bead bound peptides. After treatment, supernatant was spun down to remove cell debris. Nitrate in the supernatant was first transformed to nitrite by incubation with Nitrate Reductase for 60min in room temperature. Then 2,3-diaminonaphthalene (DAN) was added to yield fluorescent 2,3-naphthotriazole. Fluorescence was measured by a FUSION™ Universal Microplate Analyzer with excitation at 375 nm and emission at 415 nm.

[3] = target: T1, calreticulin; experiment: Blocking of shared epitope peptide-triggered signaling (cAMP-inhibitory effect, genoprotection) in M1 cells; format: cell-based; design: endogenous in cells; host or cells: M1 human fibroblastoid cells; conditions: M1 cells pre-incubated or transfected
Protocol: Finally, in order to determine whether these neuroprotective peptides transduce their signaling through calreticulin, two complementing protocols were executed: i) Inhibition of peptide-calreticulin interaction using anti-calreticulin antibodies, or ii) blocking calreticulin expression with antisense oligonucleotides (as shown in FIG. 13C and FIG. 13D).
M1 cells were cultured in 6-well plate to 60–70% confluency. M1 cells were treated by 0.2 μM antisense oligonucleotide for 24 to 48 hr, using Lipofectin as a carrier. Calreticulin expression levels were determined by Western-blot and flow cytometry, using anti-calreticulin antibodies. Polyclonal rabbit anti-human calreticulin antibodies were obtained from ABR, Golden, CO.

[4] = M1 cells pre-incubated overnight with 50 µg/ml

Row | Binding to immobilized calreticulin [1] | Block of shared epitope peptide-triggered signaling / inhibitory effect on genoprotection [3] | Substance | Block of NO induction by shared epitope-expressing peptide 65–79*0401 [2, 4] | Effect on baseline NO levels [2, 4] | Impact on NO levels with control peptide 65–79*0402 ([2]; bead-bound control peptide 65–79*0402)
1 | did not bind to calreticulin | – | Gln Lys Arg Ala Glu (QKRAE) [pentapeptide with A74E substitution] | did not inhibit 65–79*0401-triggered NO production | – | –
2 | bind very strongly to calreticulin | prevented | DKCLA [Asp Lys Cys Leu Ala] | blocked NO induction | no measureable effect | no impact
